Calls of active or inactive are those of the source. The rule behind the calls is not given here.
Key:
MCF7 [1] = assay: Induction of apoptosis in human MCF7 cells assessed as increase in Bax expression at 3 to 12 uM measured after 48 hrs by Western blot analysis; type: functional, cell-based; conditions: dose 3-12 µM
MCF7 [2] = assay: Induction of apoptosis in human MCF7 cells assessed as increase in p53 expression measured at 3 to 12 uM after 48 hrs by Western blot analysis; type: functional, cell-based; conditions: dose 3-12 µM
MCF7 [3] = assay: Decrease in Bcl-2 expression in human MCF7 cells at 3 to 12 uM measured after 48 hrs by Western blot analysis; type: functional, cell-based; conditions: dose 3-12 µM
MCF7 [4] = assay: Induction of cell cycle arrest in human MCF7 cells assessed as decrease in cyclin D1 protein expression expression at 3 to 12 uM after 48 hrs by Western blot analysis; type: functional, cell-based; conditions: dose 3-12 µM
MCF7 [5] = assay: Induction of apoptosis in human MCF7 cells at 3 uM measured after 48 hrs by Annexin V-FITC and propidium iodide staining based flow cytometry (reference value: 4.88%); type: functional
MCF7 [6] = assay: Induction of cell cycle arrest in human MCF7 cells assessed as increase in p21 protein expression after 48 hrs by Western blot analysis; type: functional, cell-based; conditions: dose 3-12 µM
MCF7 [7] = assay: Induction of apoptosis in human MCF7 cells assessed as increase in ratio of Bax to Bcl2 level measured at 3 to 12 uM after 48 hrs by Western blot analysis; type: functional, cell-based; conditions: dose 3-12 µM
MCF-10A = assay: Cytotoxicity against human MCF-10A cells assessed as inhibition of cell viability after 72 hrs by CCK-8 assay; type: cell-based
MCF7 [8] = assay: Induction of apoptosis in human MCF7 cells at 6 uM measured after 24 hrs by Annexin V-FITC and propidium iodide staining based flow cytometry (Rvb =3.54%); type: functional
MCF7 [9] = assay: Induction of apoptosis in human MCF7 cells assessed as increase in p53 phosphorylation at Ser15 residue at 3 to 12 uM measured after 48 hrs by Western blot analysis; type: functional, cell-based; conditions: dose 3-12 µM
[10] = Selectivity index, ratio of IC50 for human MCF-10A cells to IC50 for human MCF-7 cells
MCF7 [11] = assay: Antiproliferative activity against human MCF7 cells assessed as cell growth inhibition at 6 uM by CCK-8 assay; type: functional, cell-based; conditions: time 24-72 hrs, TDE = time-dependent effect
MCF7 [12] = assay: Induction of apoptosis in human MCF7 cells at 6 uM measured after 72 hrs by Annexin V-FITC and propidium iodide staining based flow cytometry (Rvb =4.62%); type: functional
[13] = molecular target: T1, Progesterone receptor (Homo sapiens) (UniProt P06401); assay: Antagonist activity at PR in human T47D cells assessed as inhibition of progesterone-induced alkaline phosphatase activity by alkaline phosphatase assay; type: cell-based; conditions: filed as antagonist
T1 sequence (whole entry): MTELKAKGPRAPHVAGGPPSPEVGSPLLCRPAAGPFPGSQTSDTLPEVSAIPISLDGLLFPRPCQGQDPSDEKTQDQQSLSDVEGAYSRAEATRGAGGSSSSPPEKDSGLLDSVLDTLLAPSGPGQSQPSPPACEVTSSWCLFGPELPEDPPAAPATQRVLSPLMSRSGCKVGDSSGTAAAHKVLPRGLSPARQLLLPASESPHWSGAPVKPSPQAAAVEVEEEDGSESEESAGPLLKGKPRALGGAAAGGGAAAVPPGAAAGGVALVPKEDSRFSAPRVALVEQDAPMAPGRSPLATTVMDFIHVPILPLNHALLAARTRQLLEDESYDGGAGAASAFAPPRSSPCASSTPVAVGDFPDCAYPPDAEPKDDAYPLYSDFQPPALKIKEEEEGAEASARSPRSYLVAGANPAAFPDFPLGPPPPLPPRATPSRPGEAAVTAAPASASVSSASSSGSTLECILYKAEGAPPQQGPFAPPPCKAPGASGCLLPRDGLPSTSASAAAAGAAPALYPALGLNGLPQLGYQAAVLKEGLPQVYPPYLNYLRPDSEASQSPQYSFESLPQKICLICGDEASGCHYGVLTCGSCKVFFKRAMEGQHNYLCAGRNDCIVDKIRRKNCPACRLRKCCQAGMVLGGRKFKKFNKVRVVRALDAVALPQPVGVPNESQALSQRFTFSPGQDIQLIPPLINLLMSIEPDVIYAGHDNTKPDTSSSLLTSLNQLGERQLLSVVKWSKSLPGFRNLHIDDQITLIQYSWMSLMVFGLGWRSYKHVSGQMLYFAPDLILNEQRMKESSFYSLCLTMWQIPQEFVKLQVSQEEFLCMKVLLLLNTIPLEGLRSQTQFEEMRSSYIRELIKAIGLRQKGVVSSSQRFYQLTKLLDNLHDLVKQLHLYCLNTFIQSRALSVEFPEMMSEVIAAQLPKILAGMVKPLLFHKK

MCF7 [14] = assay: Induction of cell cycle arrest in human MCF7 cells assessed as decrease in CDK4 protein expression at 3 to 12 uM after 48 hrs by Western blot analysis; type: functional, cell-based; conditions: dose 3-12 µM
MDA-MB-231 = assay: Antiproliferative activity against human MDA-MB-231 cells assessed as inhibition of cell viability after 72 hrs by CCK-8 assay; type: functional, cell-based; conditions: MDA-MB-231, 72 h
PC-3 = assay: Antiproliferative activity against human PC-3 cells assessed as inhibition of cell viability after 72 hrs by CCK-8 assay; type: functional, cell-based; conditions: PC-3, 72 h
MCF7 [15] = assay: Induction of apoptosis in human MCF7 cells assessed as increase in cleaved caspase-3 level at 3 to 12 uM measured after 24 to 72 hrs by flow cytometry; type: functional, cell-based; conditions: dose 3-12 µM, time 24-72 hrs
BGC-823 = assay: Antiproliferative activity against human BGC-823 cells assessed as inhibition of cell viability after 72 hrs by CCK-8 assay; type: functional, cell-based; conditions: BGC-823, 72 h
MCF7 [16] = assay: Induction of apoptosis in human MCF7 cells at 6 uM measured after 48 hrs by Annexin V-FITC and propidium iodide staining based flow cytometry (Rvb =4.88%); type: functional
MCF7 [17] = assay: Antiproliferative activity against human MCF7 cells assessed as inhibition of cell viability after 72 hrs by CCK-8 assay; type: functional, cell-based; conditions: MCF7, 72 h
MCF7 [18] = assay: Induction of apoptosis in human MCF7 cells at 12 uM measured after 48 hrs by Annexin V-FITC and propidium iodide staining based flow cytometry (Rvb =4.88%); type: functional
A549 = assay: Antiproliferative activity against human A549 cells assessed as inhibition of cell viability after 72 hrs by CCK-8 assay; type: functional, cell-based; conditions: A549, 72 h

inhibition [13]	IC50 (MDA-MB-231)	IC50 (PC-3)	IC50 (BGC-823)	SMILES	Activity (MCF7 [1])	Activity (MCF7 [2])	inhibition (MCF7 [3])	Activity (MCF7 [4])	Activity (MCF7 [5])	Activity (MCF7 [6])	Activity (MCF7 [7])	IC50 (MCF-10A)	Activity (MCF7 [8])	Activity (MCF7 [9])	Ratio IC50 [10]	Activity (MCF7 [11])	Activity (MCF7 [12])	Activity (MCF7 [14])	Activity (MCF7 [15])	Activity (MCF7 [16])	also measured
Active	9.15 µM	7.5 µM	7.82 µM	COc1ccccc1C1Oc2ccccc2-c2cc(OCc3ccccc3)c(OCc3ccccc3)cc21 (stereo unspecified)	Active	Active	Active	Active	11.71%	Dose-dependent effect	Active	51.3 µM	13.95%	Active	8.98	Tde	36.93%	Active	Active	22.97%	IC50 (MCF7 [17]): 5.71 µM; Activity (MCF7 [18]): 32.56%; IC50 (A549): 10 µM
Active	8.4 µM	9.32 µM	9.1 µM	COc1cc2c(cc1OC)C(c1ccccc1OC)Oc1ccccc1-2 (stereo unspecified)	Active	Active	Active	Active	12.98%	Dose-dependent effect	Active	48.9 µM	11.91%	Active	7.73	Tde	34.38%	Active	Active	18.87%	IC50 (MCF7 [17]): 6.32 µM; Activity (MCF7 [18]): 31.22%; IC50 (A549): 13.2 µM

From ChEMBL document CHEMBL4680352, “Rational design and synthesis of 6-aryl-6H-benzo[c]chromenes as non-steroidal progesterone receptor antagonists for use against cancers” (Bioorg Med Chem, 2021)
